{"source": "ChEMBL document CHEMBL3044596", "about": "“Stagonolides G-I and modiolide A, nonenolides produced by Stagonospora cirsii, a potential mycoherbicide for Cirsium arvense” (J Nat Prod, 2008)", "key": {"Cirsium arvense [1]": {"tested_on": "Cirsium arvense", "experiment": "Herbicidal activity against Cirsium arvense (Canada thistle) assessed as induction of leaf necrosis at 1 mg/mL measured after 2 days post compound treatment by leaf disk-puncture bioassay", "assay_type": "functional, organism-based"}, "Zea mays": {"tested_on": "Zea mays", "experiment": "Phytotoxicity activity against Zea mays (maize) assessed as leaf necrotic lesion diameter at 1 mg/mL measured after 72 hr post compound treatment by leaf disk-puncture bioassay", "assay_type": "organism-based", "settings": "in vivo"}, "Elymus repens": {"tested_on": "Elymus repens", "experiment": "Phytotoxicity activity against Elymus repens (couch grass) assessed as leaf necrotic lesion diameter at 1 mg/mL measured after 72 hr post compound treatment by leaf disk-puncture bioassay", "assay_type": "organism-based", "settings": "in vivo"}, "Solanum lycopersicum": {"tested_on": "Solanum lycopersicum", "experiment": "Phytotoxicity activity against Solanum lycopersicum (tomato) assessed as leaf necrotic lesion diameter at 1 mg/mL measured after 72 hr post compound treatment by leaf disk-puncture bioassay", "assay_type": "organism-based", "settings": "in vivo"}, "Radish": {"tested_on": "Radish", "experiment": "Phytotoxicity activity against Raphanus sativus (radish) assessed as leaf necrotic lesion diameter at 1 mg/mL measured after 72 hr post compound treatment by leaf disk-puncture bioassay", "assay_type": "organism-based", "settings": "in vivo"}, "Trifolium pratense": {"tested_on": "Trifolium pratense", "experiment": "Phytotoxicity activity against Trifolium pratense (red clover) assessed as leaf necrotic lesion diameter at 1 mg/mL measured after 72 hr post compound treatment by leaf disk-puncture bioassay", "assay_type": "organism-based", "settings": "in vivo"}, "Aegopodium podagraria": {"tested_on": "Aegopodium podagraria", "experiment": "Phytotoxicity activity against Aegopodium podagraria (bishop's weed) assessed as leaf necrotic lesion diameter at 1 mg/mL measured after 72 hr post compound treatment by leaf disk-puncture bioassay", "assay_type": "organism-based", "settings": "in vivo"}, "Cichorium intybus [2]": {"tested_on": "Cichorium intybus", "experiment": "Phytotoxicity activity against Cichorium intybus (chicory) assessed as leaf necrotic lesion diameter at 1 mg/mL measured after 72 hr post compound treatment by leaf disk-puncture bioassay", "assay_type": "organism-based", "settings": "in vivo"}, "Cirsium arvense [3]": {"tested_on": "Cirsium arvense", "experiment": "Herbicidal activity against Cirsium arvense (Canada thistle) assessed as leaf necrotic lesion diameter at 1 mg/mL measured after 72 hr post compound treatment by leaf disk-puncture bioassay", "assay_type": "functional"}, "Cichorium intybus [4]": {"tested_on": "Cichorium intybus", "experiment": "Inhibition of root growth in Cichorium intybus (chicory) seedlings soaked in 1 mg/mL compound solutions for 1 hr relative to untreated control", "assay_type": "functional"}, "Cirsium arvense [5]": {"tested_on": "Cirsium arvense", "experiment": "Herbicidal activity against Cirsium arvense (Canada thistle) assessed as induction of leaf necrosis measured after 2 days post compound treatment by leaf disk-puncture bioassay", "assay_type": "functional", "settings": "48 h"}}, "note": "Activity calls are given as the source filed them. The rule behind the calls is not given here."}
{"compound": "C[C@@H]1C[C@H](O)/C=C/[C@@H](O)/C=C\\C(=O)O1", "values": [{"measurement": "Activity", "setting": "Cirsium arvense [1]", "result": "inactive"}]}
{"compound": "C[C@@H]1C[C@H](O)/C=C\\[C@@H](O)/C=C\\C(=O)O1", "values": [{"measurement": "Activity", "setting": "Cirsium arvense [1]", "result": "inactive"}]}
{"compound": "C[C@H]1OC(=O)CC[C@H](O)C/C=C\\[C@H]1O", "values": [{"measurement": "Activity", "setting": "Cirsium arvense [1]", "result": "inactive"}]}
{"compound": "C[C@@H]1OC(=O)/C=C\\[C@@H](O)/C=C/[C@@H]2O[C@H]12", "note": "[Stagonolide H]", "values": [{"measurement": "Activity", "setting": "Zea mays", "result": "< 4", "unit": "mm"}, {"measurement": "Activity", "setting": "Elymus repens", "result": "< 4", "unit": "mm"}, {"measurement": "Activity", "setting": "Solanum lycopersicum", "result": "< 4", "unit": "mm"}, {"measurement": "Activity", "setting": "Radish", "result": "< 4", "unit": "mm"}, {"measurement": "Activity", "setting": "Trifolium pratense", "result": "< 4", "unit": "mm"}, {"measurement": "Activity", "setting": "Aegopodium podagraria", "result": "< 4", "unit": "mm"}, {"measurement": "Activity", "setting": "Cichorium intybus [2]", "result": "< 4", "unit": "mm"}, {"measurement": "Activity", "setting": "Cirsium arvense [3]", "result": 7.5, "unit": "mm"}, {"measurement": "growth inhibition (GI)", "setting": "Cichorium intybus [4]", "result": 85, "unit": "%"}, {"measurement": "Activity", "setting": "Cirsium arvense [1]", "result": "Active"}, {"measurement": "MIC", "setting": "Cirsium arvense [5]", "result": 150, "unit": "µM"}]}
